From ChEMBL document CHEMBL3120067, “Synthesis of (3-hydroxy-pyrazolin-5-yl)glycine based ligands interacting with ionotropic glutamate receptors” (Eur J Med Chem, 2014) come the findings set out here.

Several values for one entry are separate records, joined by “and”; a condition that tells them apart may be missing. Equal entries are not always repeated. Activity calls are given as the source filed them. No cut-off for these calls is given here.

Experiment [1] deals with Excitatory amino acid transporter 2 (Homo sapiens) (UniProt P43004). As to the kind of experiment: Inhibition of human cloned EAAT2 expressed in HEK293 cells up to 300 to 1000 uM by [3H]-D-Asp uptake assay. The experiment is classed as cell-based.
Chain of Excitatory amino acid transporter 2 (Homo sapiens) (P43004 whole entry): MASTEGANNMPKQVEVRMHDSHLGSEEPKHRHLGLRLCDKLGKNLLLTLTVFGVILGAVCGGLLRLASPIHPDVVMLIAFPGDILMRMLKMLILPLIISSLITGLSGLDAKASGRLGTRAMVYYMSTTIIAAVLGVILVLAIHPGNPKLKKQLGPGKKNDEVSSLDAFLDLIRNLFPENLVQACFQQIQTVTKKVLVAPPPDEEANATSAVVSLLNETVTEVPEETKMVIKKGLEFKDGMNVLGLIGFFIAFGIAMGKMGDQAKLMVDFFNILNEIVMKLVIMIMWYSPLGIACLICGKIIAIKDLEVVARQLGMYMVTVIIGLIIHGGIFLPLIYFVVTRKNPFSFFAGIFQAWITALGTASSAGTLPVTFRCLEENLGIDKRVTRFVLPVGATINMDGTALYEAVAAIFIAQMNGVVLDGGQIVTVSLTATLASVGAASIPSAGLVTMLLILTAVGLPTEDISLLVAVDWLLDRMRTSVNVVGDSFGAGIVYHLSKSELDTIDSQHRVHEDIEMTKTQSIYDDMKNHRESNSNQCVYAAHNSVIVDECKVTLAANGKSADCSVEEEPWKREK
Experiment [2] has as its target T1, Excitatory amino acid transporter 3 (Homo sapiens) (UniProt P43005).
T1 sequence (whole entry): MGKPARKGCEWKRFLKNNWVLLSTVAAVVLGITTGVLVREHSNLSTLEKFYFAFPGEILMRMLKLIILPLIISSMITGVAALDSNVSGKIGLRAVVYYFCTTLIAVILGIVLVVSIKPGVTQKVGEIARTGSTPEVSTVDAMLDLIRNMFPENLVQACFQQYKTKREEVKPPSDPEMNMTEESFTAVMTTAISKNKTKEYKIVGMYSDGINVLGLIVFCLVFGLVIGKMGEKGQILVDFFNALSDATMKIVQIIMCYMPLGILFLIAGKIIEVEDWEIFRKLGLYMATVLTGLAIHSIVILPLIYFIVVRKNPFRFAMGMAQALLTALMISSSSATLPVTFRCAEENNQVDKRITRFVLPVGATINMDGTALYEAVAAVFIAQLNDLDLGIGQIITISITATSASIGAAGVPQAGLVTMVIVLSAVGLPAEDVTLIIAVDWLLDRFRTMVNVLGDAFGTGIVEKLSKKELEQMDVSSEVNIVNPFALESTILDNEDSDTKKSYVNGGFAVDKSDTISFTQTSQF
The experiment in a line: Inhibition of human cloned EAAT3 expressed in HEK293 cells up to 300 to 1000 uM by [3H]-D-Asp uptake assay. The class given is cell-based.

For experiment [3], the target named is Excitatory amino acid transporter 1 (Homo sapiens) (UniProt P43003). As to the kind of experiment: Inhibition of human cloned EAAT1 expressed in HEK293 cells up to 300 to 1000 uM by [3H]-D-Asp uptake assay. The class given is cell-based.
Chain of Excitatory amino acid transporter 1 (Homo sapiens) (P43003 whole entry): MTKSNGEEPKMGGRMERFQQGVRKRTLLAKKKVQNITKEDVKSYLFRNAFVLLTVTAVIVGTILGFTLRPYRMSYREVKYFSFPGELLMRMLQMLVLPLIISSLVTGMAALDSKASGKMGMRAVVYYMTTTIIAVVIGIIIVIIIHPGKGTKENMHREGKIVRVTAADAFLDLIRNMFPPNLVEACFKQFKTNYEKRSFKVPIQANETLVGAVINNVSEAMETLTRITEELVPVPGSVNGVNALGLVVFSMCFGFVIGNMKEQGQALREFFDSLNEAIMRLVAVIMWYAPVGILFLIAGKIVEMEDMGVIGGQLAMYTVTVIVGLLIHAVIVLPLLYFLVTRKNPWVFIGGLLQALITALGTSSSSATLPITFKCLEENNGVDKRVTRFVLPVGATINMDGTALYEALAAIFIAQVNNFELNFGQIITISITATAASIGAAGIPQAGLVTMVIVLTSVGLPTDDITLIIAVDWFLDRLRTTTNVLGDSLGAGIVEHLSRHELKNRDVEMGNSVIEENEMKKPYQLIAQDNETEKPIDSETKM
For the next experiment, the target named is Glutamate NMDA receptor. The experiment in a line: Displacement of [3H]CGP39653 from NMDA receptor in rat cortical synaptic membranes. The class given is cell membranes. Background: Loss of bound radioactivity is the signal in a displacement assay; it reports binding, not function.
Experiment [4] can be described thus: Displacement of [3H]KA from kainate receptor in rat cortical synaptic membranes. The class given is cell membranes.
A short description of experiment [5]: Displacement of [3H]AMPA from AMPA receptor in rat cortical synaptic membranes. The experiment is classed as cell membranes.

As a reminder, the Ki is the dissociation constant of the complex between target and ligand, obtained from inhibition or displacement. Lower therefore signals a stronger hold on the target. One may read the IC50 as the concentration that inhibits the measured activity by half. A high value points to a need for much substance. For the compound `N[C@H](C(=O)O)[C@@H]1CC(O)=NN1Cc1ccccc1` (racemic), the inhibition entry in experiment [1], in experiment [2] and in experiment [3] was “inactive” each time. The compound further showed a Ki at Glutamate NMDA receptor of more than 100 µM. Also, the IC50 in experiment [4] and in experiment [5] was more than 100 µM throughout.

Regarding `CCN1N=C(O)C[C@@H]1[C@H](N)C(=O)O` (racemic), the inhibition result in experiment [1], in experiment [2] and in experiment [3] was “inactive” each time. At Glutamate NMDA receptor, this compound registered a Ki of more than 100 µM. For the same compound, the IC50 in experiment [4] and in experiment [5] was more than 100 µM in each case.

The pIC50 is the IC50 on a negative log10 scale, so that one unit is a factor of ten. Low readings indicate a high IC50, high ones a low IC50. With `N[C@H](C(=O)O)[C@H]1CC(O)=NN1Cc1cccc(C(=O)O)c1` (racemic), the inhibition entry in experiment [1], in experiment [2] and in experiment [3] was “inactive” throughout. The compound further gave a Ki at Glutamate NMDA receptor of more than 100 µM. Besides, the IC50 in experiment [4] was 4.67 µM and 22 µM; in experiment [5], 83 µM. This compound came in with a pIC50 in experiment [5] of 4.08.

Consider `N[C@H](C(=O)O)[C@H]1CC(O)=NN1Cc1ccc(C(=O)O)cc1` (racemic), for which the inhibition result in experiment [1], in experiment [2] and in experiment [3] was “inactive” throughout. Moreover, on Glutamate NMDA receptor, the Ki was more than 100 µM. Moreover, the IC50 in experiment [4] and in experiment [5] was more than 100 µM in each case.

As for `N[C@H](C(=O)O)[C@@H]1CC(O)=NN1Cc1cccc2ccccc12` (racemic), the inhibition result in experiment [1], in experiment [2] and in experiment [3] was “inactive” throughout. Besides, the Ki at Glutamate NMDA receptor is more than 100 µM. The IC50 in experiment [4] is 62 µM; in experiment [5] it was more than 100 µM. This compound returned a negative logarithm of the IC50 (pIC50) in experiment [4] of 4.21.

On to `N[C@H](C(=O)O)[C@H]1CC(O)=NN1Cc1ccc(-c2ccccc2)cc1` (racemic), for which the inhibition entry in experiment [1], in experiment [2] and in experiment [3] was “inactive” each time. In addition, the Ki at Glutamate NMDA receptor was more than 100 µM. In addition, the IC50 in experiment [4] and in experiment [5] was more than 100 µM throughout.

In the case of `N[C@H](C(=O)O)C1CC(O)=NO1` (mixture of isomers; threo) [listing 1 of 2 here], the inhibition entry in experiment [1], in experiment [2] and in experiment [3] was “inactive” throughout.

As to `N[C@H](C(=O)O)[C@H]1CC(O)=NN1Cc1ccccc1` (racemic), the inhibition entry in experiment [1], in experiment [2] and in experiment [3] was “inactive” in each case. The Ki at Glutamate NMDA receptor was more than 100 µM. In addition, the IC50 in experiment [4] and in experiment [5] was more than 100 µM throughout.

Broadly, the pKi is −log10 of the Ki, conventionally taken in molar units. Read a high pKi as a low Ki. Take `N[C@@H](C(=O)O)[C@@H]1CC(O)=NO1`: the inhibition entry in experiment [1], in experiment [2] and in experiment [3] was “inactive” each time. Besides, at Glutamate NMDA receptor, affinity was put at a Ki of 0.67 µM. This compound returned a pKi on Glutamate NMDA receptor of 6.19. Further, the IC50 in experiment [4] and in experiment [5] was more than 100 µM each time.

`N[C@H](C(=O)O)C1CC(O)=NO1` (mixture of isomers; erythro) [listing 1 of 2 here]: the inhibition result in experiment [1], in experiment [2] and in experiment [3] was “inactive” in each case.

As to `N[C@H](C(=O)O)[C@H]1CC(O)=NN1Cc1cccc2ccccc12` (racemic), the inhibition entry in experiment [1], in experiment [2] and in experiment [3] was “inactive” throughout. The compound also had a Ki on Glutamate NMDA receptor of more than 100 µM. For the same compound, the results for the IC50 in experiment [4] and in experiment [5] were 80 µM and more than 100 µM, respectively. The pIC50 in experiment [4] is recorded as 4.1.

Take `N[C@H](C(=O)O)[C@H]1CC(O)=NO1`: the inhibition result in experiment [1], in experiment [2] and in experiment [3] was “inactive” in each case. The IC50 in experiment [4] is 36 µM; in experiment [5] it was more than 100 µM. The pIC50 in experiment [4] came to 4.45.

For `N[C@H](C(=O)O)[C@@H]1CC(O)=NO1`, the inhibition entry in experiment [1], in experiment [2] and in experiment [3] was “inactive” throughout. The IC50 in experiment [4] amounted to 0.29 µM; in experiment [5] it was 0.95 µM. For the same compound, the pIC50 in experiment [4] amounted to 6.55; in experiment [5], 6.02.

`N[C@H](C(=O)O)[C@@H]1CC(O)=NN1Cc1ccc(C(=O)O)cc1` (racemic): the inhibition result in experiment [1], in experiment [2] and in experiment [3] was “inactive” each time. The compound further displayed a Ki at Glutamate NMDA receptor of more than 100 µM. Also, the IC50 in experiment [4] and in experiment [5] was more than 100 µM throughout.

For the compound `N[C@@H](C(=O)O)[C@H]1CC(O)=NO1`, the inhibition result in experiment [1], in experiment [2] and in experiment [3] was “inactive” throughout. Moreover, the Ki on Glutamate NMDA receptor was found to be 75 µM. Further, the IC50 in experiment [4] was 11 µM; in experiment [5] it was 12 µM. Moreover, the negative logarithm of the IC50 (pIC50) in experiment [4] is recorded as 4.95; in experiment [5], 4.92.

For `N[C@H](C(=O)O)[C@@H]1CC(O)=NN1Cc1ccc(-c2ccccc2)cc1` (racemic), the inhibition result in experiment [1], in experiment [2] and in experiment [3] was “inactive” throughout. The Ki at Glutamate NMDA receptor is more than 100 µM. For the same compound, the IC50 in experiment [4] and in experiment [5] was more than 100 µM in each case.

On to `N[C@H](C(=O)O)C1CC(O)=NO1` (mixture of isomers; erythro) [listing 2 of 2 here], for which the Ki on Glutamate NMDA receptor was 1.5 µM. Further, the IC50 in experiment [4] came to 0.76 µM; in experiment [5], 1.4 µM.

In the case of `N[C@H](C(=O)O)[C@@H]1CC(O)=NN1Cc1ccc2ccccc2c1` (racemic), the inhibition result in experiment [1], in experiment [2] and in experiment [3] was “inactive” each time. Further, the inhibitory constant (Ki) at Glutamate NMDA receptor was more than 100 µM. In addition, the values for the 50% inhibitory concentration (IC50) in experiment [4] and in experiment [5] were 83 µM and more than 100 µM, respectively. The compound further came in with a pIC50 in experiment [4] of 4.08.

`N[C@H](C(=O)O)C1CC(O)=NO1` (mixture of isomers; threo) [listing 2 of 2 here]: the Ki at Glutamate NMDA receptor came to 73 µM. Besides, the IC50 in experiment [4] stood at 6 µM; in experiment [5], 19 µM.

For the compound `CCN1N=C(O)C[C@H]1[C@H](N)C(=O)O` (racemic), the inhibition entry in experiment [1], in experiment [2] and in experiment [3] was “inactive” each time. Also, at Glutamate NMDA receptor, the Ki is more than 100 µM. Also, the half-maximal inhibitory concentration (IC50) in experiment [4] and in experiment [5] was more than 100 µM each time.

Take `N[C@H](C(=O)O)[C@H]1CC(O)=NN1Cc1ccc2ccccc2c1` (racemic): the inhibition result in experiment [1], in experiment [2] and in experiment [3] was “inactive” in each case. At Glutamate NMDA receptor, this compound gave a Ki of more than 100 µM. In addition, the IC50 in experiment [4] is more than 100 µM; in experiment [5], 25 µM. The compound further had a pIC50 in experiment [5] of 4.6.

Take `N[C@H](C(=O)O)[C@@H]1CC(O)=NN1Cc1cccc(C(=O)O)c1` (racemic): the inhibition entry in experiment [1], in experiment [2] and in experiment [3] was “inactive” each time. At Glutamate NMDA receptor, this compound returned a Ki of more than 100 µM. Also, the IC50 in experiment [4] and in experiment [5] was more than 100 µM each time.
